{
  "source": "patent US12509445B2",
  "about": "“Herbicidally active 4-cyclopropyl-6-[4-(trifluormethyl)pyrazol-1-yl)]pyrimidines” (Bayer Aktiengesellschaft, priority 2019, dated 2025)",
  "type_in_all_cases": "in vivo",
  "key": {"[1]": {"tested_on": "Alopecurus myosuroides (ALOMY)", "assay": "Post-emergence herbicidal action", "experimental": "(§1) Seeds of monocotyledonous and dicotyledonous weeds and crop plants are placed in sandy loam in plastic or organic plant pots, covered with soil and cultivated in a greenhouse under controlled growth conditions. 2 to 3 weeks after sowing, the test plants are treated at the one-leaf stage. The compounds of the invention, formulated in the form of wettable powders (WP) or as emulsion concentrates (EC), are then sprayed onto the green parts of the plants as aqueous suspension or emulsion with addition of 0.5% additive at a water application rate of 600 l/ha (converted). After the test plants have been kept in the greenhouse under optimum growth conditions for about 3 weeks, the activity of the preparations is rated visually in comparison to untreated controls. For example, 100% activity=the plants have died, 0% activity=like control plants.\n(§2) The abbreviations used here have the following meanings: • ABUTH Abutilon theophrasti • AMARE Amaranlhus retroflexus • CYPES Cyperus serotinus • ECHCGEchinocloa crus galli • LOLRI Lolium rigidum Gaudin • PHBPU Pharbitis purpurcum • SETVI Setaria viridis • VERPE Veronica persica • ALOMY Alopccurus myosuroides • AVEFA Avena fatua • DIGSA Digitaria sanguinalis • LOLMU Lolium multiflorum • MATIN Matricaria inodora • POLCO Polygonum convolvulus • STEME Stellaria media • VIOTR Viola tricolor\n(§3) The compounds according to the invention were tested by the post-emergence and pre-emergence methods under the conditions described above for comparative purposes with the structurally closest compounds known from WO 2005/089551 A1 (D1)."}, "[2]": {"tested_on": "Echinochloa crus-galli (ECHCG)", "assay": "Post-emergence herbicidal action", "experimental": "as §1, §2, §3"}, "[3]": {"tested_on": "Matricaria inodora (MATIN)", "assay": "Post-emergence herbicidal action", "conditions": "80 g of a.i./ha, comparative test", "experimental": "as §1, §2, §3"}, "[4]": {"tested_on": "Setaria viridis (SETVI)", "assay": "Post-emergence herbicidal action", "experimental": "as §1, §2, §3"}, "[5]": {"tested_on": "Amaranthus retroflexus (AMARE)", "assay": "Post-emergence herbicidal action", "conditions": "320 g/ha, visual rating after about 3 weeks vs untreated controls, 100% = plants have died", "experimental": "as §1, §2"}, "[6]": {"tested_on": "Lolium rigidum Gaudin (LOLRI)", "assay": "Post-emergence herbicidal action", "conditions": "320 g/ha, visual rating after about 3 weeks vs untreated controls, 100% = plants have died", "experimental": "as §1, §2"}, "[7]": {"tested_on": "Pharbitis purpurea (PHBPU)", "assay": "Post-emergence herbicidal action", "conditions": "320 g/ha, visual rating after about 3 weeks vs untreated controls, 100% = plants have died", "experimental": "as §1, §2"}, "[8]": {"tested_on": "Veronica persica (VERPE)", "assay": "Post-emergence herbicidal action", "conditions": "320 g/ha, visual rating after about 3 weeks vs untreated controls, 100% = plants have died", "experimental": "as §1, §2"}, "[9]": {"tested_on": "Viola tricolor (VIOTR)", "assay": "Post-emergence herbicidal action", "conditions": "320 g/ha, visual rating after about 3 weeks vs untreated controls, 100% = plants have died", "experimental": "as §1, §2"}, "[10]": {"tested_on": "Alopecurus myosuroides (ALOMY)", "assay": "Pre-emergence herbicidal action", "source_text": "as §2\n(§4) Seeds of monocotyledonous and dicotyledonous weed plants and crop plants are placed in plastic or organic plant pots and covered with soil. The compounds of the invention, formulated in the form of wettable powders (WP) or as emulsion concentrates (EC), are then applied onto the surface of the covering soil as aqueous suspension or emulsion with addition of 0.5% additive at a water application rate of 600 l/ha (converted). After the treatment, the pots are placed in a greenhouse and kept under good growth conditions for the trial plants. After about 3 weeks, the effect of the preparations is scored visually in comparison with untreated controls as percentages. For example, 100% activity=the plants have died, 0% activity=like control plants.\nas §3"}, "[11]": {"tested_on": "Echinochloa crus-galli (ECHCG)", "assay": "Pre-emergence herbicidal action", "source_text": "as §2, §4, §3"}, "[12]": {"tested_on": "Matricaria inodora (MATIN)", "assay": "Pre-emergence herbicidal action", "source_text": "as §2, §4, §3"}, "[13]": {"tested_on": "Polygonum convolvulus (POLCO)", "assay": "Pre-emergence herbicidal action", "source_text": "as §2, §4, §3"}, "[14]": {"tested_on": "Setaria viridis (SETVI)", "assay": "Pre-emergence herbicidal action", "source_text": "as §2, §4, §3"}, "[15]": {"tested_on": "Stellaria media (STEME)", "assay": "Pre-emergence herbicidal action", "source_text": "as §2, §4, §3"}, "[16]": {"tested_on": "Viola tricolor (VIOTR)", "assay": "Pre-emergence herbicidal action", "source_text": "as §2, §4, §3"}, "[17]": {"tested_on": "Amaranthus retroflexus (AMARE)", "assay": "Pre-emergence herbicidal action", "conditions": "320 g/ha, visual scoring after about 3 weeks vs untreated controls, 100% = plants have died", "source_text": "as §2, §4"}, "[18]": {"tested_on": "Avena fatua (AVEFA)", "assay": "Pre-emergence herbicidal action", "conditions": "320 g/ha, visual scoring after about 3 weeks vs untreated controls, 100% = plants have died", "source_text": "as §2, §4"}, "[19]": {"tested_on": "Digitaria sanguinalis (DIGSA)", "assay": "Pre-emergence herbicidal action", "conditions": "320 g/ha, visual scoring after about 3 weeks vs untreated controls, 100% = plants have died", "source_text": "as §2, §4"}, "[20]": {"tested_on": "Lolium rigidum Gaudin (LOLRI)", "assay": "Pre-emergence herbicidal action", "conditions": "320 g/ha, visual scoring after about 3 weeks vs untreated controls, 100% = plants have died", "source_text": "as §2, §4"}, "[21]": {"tested_on": "Pharbitis purpurea (PHBPU)", "assay": "Pre-emergence herbicidal action", "conditions": "320 g/ha, visual scoring after about 3 weeks vs untreated controls, 100% = plants have died", "source_text": "as §2, §4"}, "[22]": {"tested_on": "Veronica persica (VERPE)", "assay": "Pre-emergence herbicidal action", "conditions": "320 g/ha, visual scoring after about 3 weeks vs untreated controls, 100% = plants have died", "source_text": "as §2, §4"}, "[23]": {"tested_on": "harmful plants such as Alopecurus myosuroides, Amaranthus retroflexus, Avena fatua, Echinochloa crus-galli, Matricaria inodora, Pharbitis purpurea, Polygonum …", "assay": "Pre-emergence herbicidal action, summary in text", "conditions": "pre-emergence treatment", "source_text": "as §4\nAt the same time, some compounds according to the invention leave graminaceous crops such as barley, wheat, rye, millet/sorghum, maize, rice or sugarcane virtually undamaged when applied by the pre-emergence method, even at high active compound dosages. Some compounds are additionally also benign to dicotyledonous crops such as soya, cotton, oilseed rape or sugarbeet."}, "[24]": {"conditions": "80 g of a.i./ha, comparative test"}, "[25]": {"conditions": "320 g/ha, visual rating after about 3 weeks vs untreated controls, 100% = plants have died"}, "[26]": {"conditions": "320 g/ha, visual scoring after about 3 weeks vs untreated controls, 100% = plants have died"}},
  "data": [
    {"smiles": "FC(F)Oc1cc(Oc2nc(C3CC3)cc(-n3cc(C(F)(F)F)cn3)n2)ccn1", "note": "[Example I-003]", "values": [
      {"measurement": "Herbicidal action against ALOMY", "setting": "[1]; [24]", "value": 60, "unit": "%"},
      {"measurement": "Post-emergence action ALOMY", "setting": "[1]; [25]", "value": 90, "unit": "%"},
      {"measurement": "Herbicidal action against ECHCG", "setting": "[2]; [24]", "value": 80, "unit": "%"},
      {"measurement": "Post-emergence action ECHCG", "setting": "[2]; [25]", "value": 90, "unit": "%"},
      {"measurement": "Herbicidal action against MATIN", "setting": "[3]", "value": 60, "unit": "%"},
      {"measurement": "Herbicidal action against SETVI", "setting": "[4]; [24]", "value": 60, "unit": "%"},
      {"measurement": "Post-emergence action SETVI", "setting": "[4]; [25]", "value": 80, "unit": "%"},
      {"measurement": "Post-emergence action AMARE", "setting": "[5]", "value": 90, "unit": "%"},
      {"measurement": "Post-emergence action LOLRI", "setting": "[6]", "value": 90, "unit": "%"},
      {"measurement": "Post-emergence action PHBPU", "setting": "[7]", "value": 80, "unit": "%"},
      {"measurement": "Post-emergence action VERPE", "setting": "[8]", "value": 90, "unit": "%"},
      {"measurement": "Post-emergence action VIOTR", "setting": "[9]", "value": 90, "unit": "%"},
      {"measurement": "Herbicidal action against ALOMY", "setting": "[10]; [24]", "value": 60, "unit": "%"},
      {"measurement": "Pre-emergence action ALOMY", "setting": "[10]; [26]", "value": 100, "unit": "%"},
      {"measurement": "Herbicidal action against ECHCG", "setting": "[11]; [24]", "value": 30, "unit": "%"},
      {"measurement": "Pre-emergence action ECHCG", "setting": "[11]; [26]", "value": 90, "unit": "%"},
      {"measurement": "Herbicidal action against MATIN", "setting": "[12]; [24]", "value": 90, "unit": "%"},
      {"measurement": "Pre-emergence action MATIN", "setting": "[12]; [26]", "value": 90, "unit": "%"},
      {"measurement": "Herbicidal action against POLCO", "setting": "[13]; [24]", "value": 20, "unit": "%"},
      {"measurement": "Pre-emergence action POLCO", "setting": "[13]; [26]", "value": 90, "unit": "%"},
      {"measurement": "Herbicidal action against SETVI", "setting": "[14]; [24]", "value": 100, "unit": "%"},
      {"measurement": "Pre-emergence action SETVI", "setting": "[14]; [26]", "value": 100, "unit": "%"},
      {"measurement": "Herbicidal action against STEME", "setting": "[15]; [24]", "value": 90, "unit": "%"},
      {"measurement": "Pre-emergence action STEME", "setting": "[15]; [26]", "value": 100, "unit": "%"},
      {"measurement": "Herbicidal action against VIOTR", "setting": "[16]; [24]", "value": 100, "unit": "%"},
      {"measurement": "Pre-emergence action VIOTR", "setting": "[16]; [26]", "value": 100, "unit": "%"},
      {"measurement": "Pre-emergence action AMARE", "setting": "[17]", "value": 100, "unit": "%"},
      {"measurement": "Pre-emergence action AVEFA", "setting": "[18]", "value": 90, "unit": "%"},
      {"measurement": "Pre-emergence action DIGSA", "setting": "[19]", "value": 100, "unit": "%"},
      {"measurement": "Pre-emergence action LOLRI", "setting": "[20]", "value": 100, "unit": "%"},
      {"measurement": "Pre-emergence action PHBPU", "setting": "[21]", "value": 100, "unit": "%"},
      {"measurement": "Pre-emergence action VERPE", "setting": "[22]", "value": 100, "unit": "%"},
      {"measurement": "herbicidal action against harmful plants (in words)", "setting": "[23]", "value": "good herbicidal action"}
    ]}
  ]
}
